Marks after values point to notes of the source that are not given here.
Columns and labels:
[1] = Safety and tolerability (adverse events, laboratory findings), phase 1 DDI study
Experimental: Participants were also excluded if they used any prescription medication (except female contraception) and any over-the-counter medications/supplements within 14 days and 7 days prior to the first admission, respectively.
In both cohorts, FMGX was administered as a 3-hour IV infusion twice a day (BID, dosing interval: […]). All participants received FMGX on 2 days, once before a washout period (minimum 14 days) and once after the washout. […] The study consisted of a screening phase [days −28 to −1 (admission)], assessment phase (cohort 1: days −1 to 31; cohort 2: days −1 to 34), and follow-up phase (cohort 1: day 38 ± 1; cohort 2: day 41 ± 1). Participants in both cohorts had in-clinic stays for two periods: cohort 1 [days −1 to 4 (morning) and days 17 to 31 (morning)], cohort 2 [days −1 to 4 (morning) and day 23 to 34 (morning)], and at home dosing for two periods: cohort 1 (days 15 to 17) and cohort 2 (days 15 to 23).
Safety was assessed by evaluating the frequency of adverse events (AEs) recorded from the first admission (day −1) until completion of the follow-up visit (day 38 ± 1 in cohort 1; day 41 ± 1 in cohort 2). All AEs were classified per the Medical Dictionary for Regulatory Activities (MedDRA v22.1). The investigator ascertained relatedness to study the drug administration.
An analysis of variance (ANOVA) model was used to analyze the natural log-transformed primary PK parameters while the secondary PK parameters were not subjected to inferential statistical analysis. For each cohort, 18 participants were included to ensure at least 16 completed all assessments, as this was considered adequate to evaluate PK, safety, and tolerability. Thus, a sample size of 36 was considered sufficient to assess primary and secondary objectives. […] The PK analysis set included all participants who received at least one dose of FMGX and had adequate plasma concentration data available for PK analysis.

human CYPs = settings: concentrations up to 30 µM in vitro; ref data on file; cited from earlier work
[2] = Plasma pharmacokinetics of MGX and FMGX (noncompartmental analysis), phase 1 fixed-sequence DDI study with itraconazole or rifampin; format: in vivo, human; settings: for FMGX AUC(0-23) / FMGX AUC(0-t) / FMGX Cmax / FMGX Tmax / FMGX AUC(inf) / FMGX CL / FMGX Vz / FMGX t½ / FMGX λz: D1; for FMGX AUC(0-23) / FMGX AUC(0-t) / FMGX Cmax / FMGX AUC(inf) / FMGX CL / FMGX Vz / FMGX t½ / FMGX λz: geometric mean (geometric %CV); for FMGX Tmax: median (range)
Experimental: In cohort 1, MGX plasma samples were collected at specified time points daily on days 1–4, once every 2 days on days 6–14, daily for 3 days from days 18 to 20, once every 2 days from days 21 to 29, and then on day 31, while itraconazole samples were collected at specified time points on days 19, 25, and 31. […] PK parameters were calculated using noncompartmental analysis from the plasma concentration-time data for MGX and FMGX. Primary PK parameters were maximum observed plasma concentration (Cmax), AUC from time 0 to infinity (AUC0-inf), and AUC up to time t (AUC0-t, where t was the last time point with concentrations above the lower limit of quantitation). […] Secondary PK parameters were time to attain Cmax (Tmax), AUC from time 0 to 23 hours (AUC0-23), terminal elimination half-life after the last dosing on the day (t1/2), clearance (CL), volume of distribution at terminal phase (Vz), and terminal phase rate constant after the last dosing on the day (λz).

[3] = tested on: Candida, Coccidioides, Cryptococcus, and Aspergillus spp; settings: cited from earlier work
CYP450 enzymes = settings: cited from earlier work
[4] = FMGX only 500 mg BID IV, Cohort 1, n = 16
[5] = FMGX only 500 mg BID IV, Cohort 1, n=12
[6] = FMGX only 1000 mg BID IV, Cohort 2, n = 17
[7] = one participant, cohort 1, considered related to itraconazole, days 31 through 70

## Nc1c(-c2cc(Cc3ccc(COc4ccccn4)cc3)no2)ccc[n+]1COP(=O)([O-])O [FMGX, Fosmanogepix]
[1]; Cohort 1, FMGX 500 mg
  FMGX-related AEs / all events: 4/43
[1]; Cohort 2, FMGX 1,000 mg
  FMGX-related AEs / all events: 33/145
[1]; FMGX 500 and 1,000 mg, alone or with itraconazole 200 mg or rifampin 600 mg
  Safety and tolerability: safe and well tolerated
[1]; both cohorts, N = 36
  Deaths, serious AEs (SAEs), FMGX-related withdrawals: No deaths, serious AEs (SAEs), or FMGX-related withdrawals
  Participants reporting FMGX-related AEs, n (%): 12 (33.3%)
[1]; of all 188 events, both cohorts
  AEs considered related to FMGX, number of events: 37
Human CYPs
  Reversible or time-dependent inhibition of human CYPs: No reversible or time-dependent inhibition
[2]; [4]
  FMGX AUC(0-23): 9945 (16.5) hr×ng/mL
  FMGX AUC(0-t): 9945 (16.5) hr×ng/mL
  FMGX Cmax: 1520 (18.6) ng/mL
  FMGX Tmax: 10.5 (0.50 – 12.0) hr
[2]; [5]
  FMGX AUC(inf): 10191 (18.3)** hr×ng/mL
  FMGX CL: 98128 (18.3)** mL/hr
  FMGX Vz: 53.6 (22.5)** L
  FMGX t½: 0.38 (14.4)** hr
  FMGX λz: 1.83 (14.4)** 1/hr
[2]; [6]
  FMGX AUC(0-23): 18162 (22.3) hr×ng/mL
  FMGX AUC(0-t): 18162 (22.3) hr×ng/mL
  FMGX AUC(inf): 18163 (22.3) hr×ng/mL
  FMGX CL: 110117 (22.3) mL/hr
  FMGX Cmax: 2974 (24.2) ng/mL
  FMGX Vz: 69.4 (30.4) L
  FMGX t½: 0.44 (18.4) hr
  FMGX λz: 1.59 (18.4) 1/hr
  FMGX Tmax: 9.50 (0.50 – 12.1) hr
[2]; both cohorts
  Effect of CYP3A4 inhibition or pan-CYP induction on exposure to FMGX: did not affect exposure
[3]
  Efficacy in mouse models of invasive pulmonary and disseminated fungal infections: demonstrated efficacy
CYP450 enzymes
  Substrate for CYP450 enzymes: not a substrate

## CCC(C)n1ncn(-c2ccc(N3CCN(c4ccc(OCC5COC(Cn6cncn6)(c6ccc(Cl)cc6Cl)O5)cc4)CC3)cc2)c1=O (stereo not shown) [ITR, itraconazole, reference compound]
[1]; [7]
  Increase in alanine transaminase (ALT): ~ 8 × ULN
  Increase in aspartate transaminase (AST): ~ 11 × ULN
[1]; one participant, cohort 1, day 31 to day 63
  Increase in lactate dehydrogenase (LDH): ~ 2 × ULN

Reference: article PMC11620482, “Phase 1 drug-drug interaction study to assess the effect of CYP3A4 inhibition and pan-CYP induction on the pharmacokinetics and safety of fosmanogepix in healthy participants” (Antimicrobial Agents and Chemotherapy, 2024)
